Data as given in ChEMBL document CHEMBL1135026, “Synthesis of fluorescent biochemical tools related to the 2-azetidinone class of cholesterol absorption inhibitors” (2002).

Key:
Type in all cases: functional
Rattus norvegicus [1] = assay: Percent inhibition of 14C]cholesterol absorption into plasma using cholesterol absorption assay in rats at the dose of 10 ug/Kg
Rattus norvegicus [2] = species: Rattus norvegicus; assay: Compound was tested for cholesterol absorption inhibition in rats by bolus injection 1 mL) via the intestinal catheter into the small intestine, by cholesterol absorption assay; conditions: read-out: ID50 (the source's name)
Rattus norvegicus [3] = assay: Percent inhibition of 14C]cholesterol absorption into plasma using cholesterol absorption assay in rats at the dose of 3 ug/Kg
Rattus norvegicus [4] = assay: Percent inhibition of 14C]cholesterol absorption into plasma using cholesterol absorption assay in rats at the dose of 100 ug/Kg
Rattus norvegicus [5] = assay: Percent inhibition of 14C]cholesterol absorption into plasma using cholesterol absorption assay in rats at the dose of 30 ug/Kg
Rattus norvegicus [6] = assay: Percent inhibition of 14C]cholesterol absorption into plasma using cholesterol absorption assay in rats at the dose of 186 ug/Kg
Rattus norvegicus [7] = assay: Percent inhibition of 14C]cholesterol absorption into plasma using cholesterol absorption assay in rats at the dose of 56 ug/Kg
Rattus norvegicus [8] = assay: Percent inhibition of 14C]cholesterol absorption into plasma using cholesterol absorption assay in rats at the dose of 300 ug/Kg
Rattus norvegicus [9] = assay: Percent inhibition of 14C]cholesterol absorption into plasma using cholesterol absorption assay in rats at the dose of 2000 ug/Kg

Row | SMILES | inhibition in vivo at 0.01 mg/kg (Rattus norvegicus [1]) [%] | inhibition in vivo at 0.1 mg/kg (Rattus norvegicus [4]) [%] | inhibition in vivo at 0.03 mg/kg (Rattus norvegicus [5]) [%] | further results
1 | O=C1[C@H](CC[C@H](O)c2ccc(F)cc2)[C@@H](c2ccc(O)cc2)N1c1ccc(F)cc1 [EZETIMIBE] | 74 |  |  | ED50 (Rattus norvegicus [2]): 1.6 µg/kg; inhibition in vivo at 0.003 mg/kg (Rattus norvegicus [3]): 63%
2 | O=C(O)[C@H]1O[C@@H](Oc2ccc([C@@H]3[C@@H](CC[C@H](O)c4ccc(F)cc4)C(=O)N3c3ccc(F)cc3)cc2)[C@H](O)[C@@H](O)[C@@H]1O | 91 |  |  | 
3 | O=C(O)[C@H]1O[C@@H](Oc2ccc([C@@H]3[C@@H](CC[C@H](O)c4ccc(F)cc4)C(=O)N3c3cccc4nsnc34)cc2)[C@H](O)[C@@H](O)[C@@H]1O | 66 | 85 | 83 | 
4 | O=C(CCCCCNC(=O)c1ccc(-c2c3ccc(=O)cc-3oc3cc(O)ccc23)c(C(=O)O)c1)NCC#Cc1ccc(N2C(=O)[C@H](CC[C@H](O)c3ccc(F)cc3)[C@H]2c2ccc(O[C@@H]3O[C@H](C(=O)O)[C@@H](O)[C@H](O)[C@H]3O)cc2)cc1 |  |  | 85 | inhibition in vivo at 0.186 mg/kg (Rattus norvegicus [6]): 88%; inhibition in vivo at 0.056 mg/kg (Rattus norvegicus [7]): 79%
5 | Cc1cc(C)n(B(F)F)c1/C=C1/C=CC(CCC(=O)NCC#Cc2ccc(N3C(=O)[C@H](CC[C@H](O)c4ccc(F)cc4)[C@H]3c3ccc(O[C@@H]4O[C@H](C(=O)O)[C@@H](O)[C@H](O)[C@H]4O)cc3)cc2)=N1 |  | 80 | 58 | inhibition in vivo at 0.3 mg/kg (Rattus norvegicus [8]): 92%
6 | COc1ccc([C@@H]2[C@@H](CCCc3ccccc3)C(=O)N2c2ccc(OC)cc2)cc1 [SCH-48461] |  |  |  | inhibition in vivo at 2 mg/kg (Rattus norvegicus [9]): 95%
